Assay: xn = mol fraction of the nth substance listed
Settings: 100 kPa, x1 = 0.5

C[N+](CCO)(CCO)CCOCCO.[Cl-] + NC(N)=O
Settings	viscosity [mPa·s]
283.15 K	45000
288.15 K	23200
293.15 K	12700
298.15 K	7350
303.15 K	4396
308.15 K	2744
313.15 K	1766
318.15 K	1172
323.15 K	794
333.15 K	400
338.15 K	295

Reference: a compilation of properties of binary mixtures (doi:10.1016/j.fluid.2023.113736)
